In publication PMC12310718, “Evaluation of newly synthesized schiff base Pd(II) complexes for prostate cancer treatment through in vitro cytotoxicity and molecular mechanistic studies” (Frontiers in Chemistry, 2025):

Experiments:
PC-3 = experiment: MTT cytotoxicity assay, PC-3; assay type: cell-based, human; details: mean ± SD
From the text: (§1) In this investigation, two experimental groups of cancer cell lines were employed: human prostate carcinoma cells lacking prostate-specific membrane antigen (PSMA) and androgen receptor independence (DU-145 and HTB-81™), alongside human prostate carcinoma cells (PC-3 and CRL-1435™). The control group comprised non-cancerous human fibroblasts (MRC-5 and CCL-171™). All cell lines utilized in this study were procured from the American Type Culture Collection (ATCC, Manassas, VA, United States). The cells were maintained in a complete medium containing high-glucose DMEM, supplemented with 10% fetal bovine serum and 200 mM L-glutamine (reagents sourced from Sigma-Aldrich, St. Louis, MO, United States). Cultivation of the cells was conducted in 25 cm^2 flasks (Thermo Fisher Scientific, Waltham, MA, United States) at 37°C under conditions of absolute humidity and a 5% CO2 atmosphere. The cytotoxic effects of three newly synthesized Pd(II) complexes were assessed on DU-145, PC-3, and MRC-5 cell lines using the MTT assay. For comparison, the cytotoxicity of cisplatin, a clinically established chemotherapeutic agent, was also evaluated across all cell lines. Cells were harvested during their exponential growth phase, counted, and seeded at a density of 5 × 10^3 cells per well in 96-well culture plates. […] The treated cells were incubated under identical conditions (37°C, 5% CO2, absolute humidity) for durations of 24, 48, and 72 h. After incubation, the medium was removed, and an MTT solution was added to each well. The cells were then incubated for an additional 2 h to facilitate the reduction of thiazolyl blue tetrazolium bromide in the MTT solution. Subsequently, the MTT solution was carefully removed, and the resulting formazan crystals were solubilized in DMSO. […] All experiments were performed in triplicate and repeated across three independent runs. Cell viability was calculated as a percentage by dividing the absorbance of treated cells (minus blank absorbance) by the average absorbance of untreated control cells (minus blank absorbance) and multiplying by 100. % of the viable cells=absorbance of treated cell−absorbance of blank / absorbance of untreated cell−absorbance of blank * 100 […] This analysis was performed using Microsoft Office Excel 2010, leveraging its curve-fitting capabilities to determine precise inhibitory concentrations.

DU-145 = experiment: MTT cytotoxicity assay, DU-145; assay type: cell-based, human; details: mean ± SD
From the text: as §1

MRC-5 = experiment: MTT cytotoxicity assay, MRC-5 fibroblasts; assay type: cell-based, human; details: mean ± SD
From the text: as §1

DU-145 cells [1] = experiment: Mitochondrial membrane potential by JC-10 staining; assay type: cell-based, human; details: DU-145, IC50 of complex, 48 h
Description: JC-10 gathers in the mitochondria of living cells, forming red fluorescence aggregates. On the other hand, JC-10 is also present in a monomeric cytosolic form and dyes cells green in necrotic and apoptotic cells. Mitochondrial membrane potential was assessed using the dye JC-10. DU-145 cells were seeded at a density of 2 × 10^4 cells per well in 24-well cell culture plates and incubated in complete DMEM medium at 37°C with 5% CO2 for 24 h. […] The cells were treated for 20 min with 2.5 μM JC-10 dye in warm PBS. JC-10 accumulation in cells was evaluated using a Gramma Libero FLUO500T trinocular inverted fluorescence microscope. We used the 525/590 nm fluorescence emission ratio for our quantification analysis. We captured images using the 2020 S-EYE Setup Microscope camera and the S-EYE_Setup-1.6.0.11 software. The ImageJ program was used to analyse the images.

[2] = Stability in DMSO by UV-Vis spectra; assay type: physicochemical; details: UV-Vis 200–600 nm after t = 0, 24, and 48 h
Description: UV-Vis spectra were recorded in DMSO as a solvent, at room temperature, and the data of the absorption wavelength maxima (λ max) are given in Table 3 and Figure 3. […] Further, two more bands are attributed to the ligand 1b, the medium intensity π → π* and very weak and broad n→π* transition of the imine group. Upon coordination, the π → π* band of the imine group decreases in intensity, while the new band at 393 nm, attributed to Ligand-to-Metal Charge Transfer (LMCT), appears ([Felicio et al., 2001]; [Hussain et al., 2019]). The stability of Schiff base metal complexes is a key factor influencing their performance during biological evaluations. Unstable complexes, prone to hydrolysis or degradation, may lead to reduced efficacy, altered mechanisms of action, or false-positive/negative outcomes. Palladium (II), typically adopting a square-planar geometry ([Kostić et al., 2003]), forms stable complexes with bidentate Schiff base ligands, but its coordination environment can be sensitive to ligand exchange. […] In order to determine the stability of selected complex 2b in DMSO, a series of UV-Vis spectra in the range of 200–600 nm were recorded after t = 0, 24, and 48 h (Supplementary Figure SI17) ([Marjanović et al., 2023]).

[3] = Stability assay in PBS by UV-Vis spectra; assay type: physicochemical; details: ∼10^–5 M, less than 0.7% DMSO, UV-Vis after 0, 24 and 48 h
Description: The complex used for the testing was dissolved in the minimal amount of DMSO (dimethylsulfoxide) possible and diluted with PBS of ∼10^–5 M in concentration and less than 0.7% DMSO. UV-Vis spectra were recorded after 0, 24 and 48 h in the range 200–600 nm. Absorption spectra were recorded on UV–Vis Perkin–Elmer Lambda 35 spectrophotometer equipped with water thermostated cell.

DU-145 cells [4] = experiment: Clonogenic assay; assay type: cell-based, human; details: DU-145, four concentrations, 2 weeks colony formation
Description: In this assay ([Franken et al., 2006]), cells are seeded at low densities and incubated for 2 weeks to allow colony formation, with colonies defined as clusters of ≥50 cells. Treated and untreated cells are compared to assess survival fractions (SF), calculated by normalizing the plating efficiency (PE) of treated cells to that of controls. Colonies are fixed with 6% glutaraldehyde, stained with 0.5% crystal violet, and colonies were quantified using ImageJ software version 1.54 with a standardized macro. Images were first converted to 8-bit grayscale, and background noise was reduced using the “Subtract Background” function. Thresholding was applied to isolate colonies, and the “Analyze Particles” tool was used to count colonies based on defined size and circularity parameters. Only colonies with an area corresponding to ≥50 cells and a circularity range of 0.3–1.0 were included. Overlapping or merged colonies were excluded unless distinct borders were visually discernible. All image processing steps were applied consistently across samples to ensure reproducibility. Data are represented as dose-response survival curves.
Plating efficiency is calculated by the following formula: PE=Number of colonies/Number of cells seeded×100%
Survival fraction is calculated when all plating efficiencies are calculated according to the formula: SF=PEtreated/PEcontrol

CT-DNA = experiment: DNA viscosity measurement; assay type: binding, calf; details: 0.01 mM DNA in PBS, [2c]/[DNA] 0.1-1
Description: All chemicals were used without purification, and all of them are commercially available. ^1H NMR and ^13C NMR spectra were recorded in DMSO-d6 as a solvent with a Bruker Ascend 400 (400 MHz) spectrometer. Chemical shifts are given in parts per million (δ) down from tetramethylsilane as the internal standard. For elemental analyses (C, H, O, N) were used Elementar Vario MICRO elemental analyzer. IR spectra were obtained on Perkin Elmer FT-IR spectrometer, two equipped with a DTGS detector. Mass spectra were recorded at 6546 LC/Q-TOF (Agilent, Santa Clara, CA, SAD) equipped with Jet Stream ion source and connected with 1,290 Infinity II HPLC (Agilent, Santa Clara, CA, AD). Data were collected every second in the mass area 100–1,000 Da. Molar conductance of the Pd(II) complexes was measured on freshly prepared 10^–3 M solutions in DMSO at room temperature using Crison EC-Meter basic 30+conductivity cell. The viscosity of the DNA solution was measured in the absence and presence of increasing amounts of 2c. To the 0.01 mM DNA solution in PBS, a corresponding ratio of examinated compound was added at ratio [2c]/[DNA]: 0.1; 0.2; 0.3; 0.4; 0.5; 0.6; 0.7; 0.8; 0.9 and 1. Data are presented as a plot of (η/η0)1/3 vs. ratio of [2c]/[DNA], where η is the DNA viscosity in the presence of the compound, η0 is the viscosity of DNA in buffer alone.

| Structure (SMILES) | IC50 (PC-3; PC-3, 48 h drug exposure) [µM] | IC50 (PC-3; PC-3, 72 h drug exposure) [µM] | IC50 (DU-145; DU-145, 24 h drug exposure) [µM] | IC50 (DU-145; DU-145, 48 h drug exposure) [µM] | IC50 (DU-145; DU-145, 72 h drug exposure) [µM] | IC50 (MRC-5; MRC-5, 24 h drug exposure) [µM] | IC50 (MRC-5; MRC-5, 48 h drug exposure) [µM] | IC50 (MRC-5; MRC-5, 72 h drug exposure) [µM] | IC50 (PC-3; PC-3, 24 h drug exposure) [µM] | increase of JC-10 green/JC-10 red ratio compared to untreated cells (DU-145 cells [1]) [fold] | stability in DMSO [2] | stability in solution (PBS) [3] | long-term antiproliferative effect (survival fraction) (DU-145 cells [4]) | DNA binding mode from viscosity (CT-DNA) |
| --- | --- | --- | --- | --- | --- | --- | --- | --- | --- | --- | --- | --- | --- | --- |
| N.N.[Cl][Pt][Cl] [CP, cisplatin, reference compound] | 29.7 ± 3.1 | 21.9 ± 2.2 | 22.3 ± 2.4 | 11.4 ± 1.1 | 8.2 ± 0.8 | 90.1 ± 9.2 | 41.9 ± 4.4 | 24.4 ± 0.8 |  |  |  |  |  |  |
| Oc1ccc(CN=Cc2ccccc2[O][Pd][O]c2ccccc2C=NCc2ccc(O)cc2)cc1 [Complex 2a] | 89.8 ± 8.8 | 79.3 ± 7.7 | 83.6 ± 9.2 | 17.5 ± 1.6 | 9.3 ± 0.9 | 94.3 ± 9.7 | 92.4 ± 9.1 | 83 ± 8.1 | 94.1 ± 9.1 | 2.1 |  |  |  |  |
| Oc1ccc(CCN=Cc2ccccc2[O][Pd][O]c2ccccc2C=NCCc2ccc(O)cc2)cc1 [Complex 2b] | 58.6 ± 5.6 | 29.1 ± 2.8 | 75.9 ± 7.3 | 19.2 ± 2.1 | 8.7 ± 0.8 | 87.7 ± 8.8 | 78.5 ± 7.7 | 49.2 ± 5.1 | 75.2 ± 7.2 | 2.9 | retaining its structural integrity without signs of ligand displacement or decomposition | sufficient stability in solution under physiologically relevant conditions |  |  |
| C(=NCCc1c[nH]c2ccccc12)c1ccccc1[O][Pd][O]c1ccccc1C=NCCc1c[nH]c2ccccc12 [Complex 2c] | 12.5 ± 1.1 | 8.6 ± 0.9 | 48.4 ± 5.1 | 11 ± 1.2 | 7.1 ± 0.8 | 80.7 ± 8.1 | 75.6 ± 7.7 | 42.3 ± 4.1 | 38.4 ± 3.6 | 3.2 |  |  | most pronounced effect | intercalates very weakly |
